Measurements as given in article PMC4551467 (EBioMedicine, 2015).
Entries after “also recorded” stand apart in the source; their conditions may differ.

Columns and labels:
[1] = mouse, in vivo, cited from earlier work
[2] = system: human normal cells (GM05757 and MRC-5); assay type: cell-based; conditions: read-out: IC50 toward human normal cells
MRC-5 human normal cells = assay type: cell-based
[3] = system: NIH:OVCAR-3 cisplatin-resistant human ovarian cancer cells; assay: cells; assay type: cell-based
[4] = system: MRC-5 human lung normal cells; assay type: cell-based; conditions: read-out: IC50 (agent concentration to kill 50% of untreated cells), MRC-5
[5] = system: A549 lung cancer xenograft tumor tissue; parameters: species or system SCID mice; conditions: mouse, in vivo
[6] = mouse, in vivo
[7] = mouse, in vivo; remark: listed apart in the source
[8] = system: HeLa, ME-180, MDA-MB-231, A549 and NIH:OVCAR-3 cancer cells; assay: cells; assay type: cell-based; conditions: Homo sapiens, 72 h, read-out: IC50 against cancer cells
[9] = system: NIH:OVCAR-3 ovarian cancer xenograft; parameters: species or system SCID mice; conditions: mouse, in vivo
[10] = system: GM05757 human normal cells; assay type: cell-based

| Molecule | mean body weight compared to vehicle control ([1]; 2.3 mg/kg) | levels of blood urea nitrogen (BUN) ([1]; 15 mg/kg) | mice that died within 5 days ([1]; 15 mg/kg) | IC50 [2] | activation of caspase-3 and -7 in MRC-5 normal cells (MRC-5 human normal cells) | NIH:OVCAR-3 cancer cells surviving high-dose treatment [3] | IC50 [4] | apoptosis in tumor tissue (TUNEL) vs untreated group [5] | acute toxicity in mice (hepatotoxicity, nephrotoxicity, electrolytes) [6] | caspase activation (apoptosis) in normal cells (MRC-5 human normal cells) | overall physical toxicity in mice [7] | IC50 [8] | cisplatin-resistant ovarian (NIH:OVCAR-3) tumor growth vs control [9] | increase of the GSH level in normal cells [10] | IC50 ([3]; Homo sapiens, OVCAR-3, 72 h, read-out: IC50, NIH:OVCAR-3) |
| --- | --- | --- | --- | --- | --- | --- | --- | --- | --- | --- | --- | --- | --- | --- | --- |
| cisplatin | significant decrease | significantly elevated | Half | ≤ 10 µM | significant activation | about 12% | ~6 µM | – | – | – | – | – | – | – | – |
| Nc1cc(I)c(I)cc1N [FMD-2I-DAB, 4,5-diiodo-1,2-phenylenediamine] | – | – | – | – | – | – | – | significant enhancement in apoptosis; also recorded: most effective inducer of apoptosis | no acute toxicity | negligible caspase activation | no overall physical toxicity | 15 to 75 µM | effectively suppressed | – | – |
| Nc1cc(Br)c(Br)cc1N [FMD-2Br-DAB, 4,5-dibromo-1,2-phenylenediamine] | – | – | – | – | – | – | – | significant enhancement in apoptosis | no acute toxicity | negligible caspase activation | no overall physical toxicity | 15 to 75 µM | – | about 40% | 175 µM |
